Reference: PubChem BioAssay AID1963961 (Molecular Pharmacology Branch, DTP, NCI, 2024)
Each block holds one compound with its values, some of them ahead of it.

Tested on: K98450-129-R-PDC multicell spheroids, viability
Assay: Anticancer human tumor K98450-129-R-PDC patient-derived colon adenocarcinoma cell line growth inhibition [PI3K]
Settings: for IC50: curve of first compound; for viability, T/C: stronger effect = lower value
Text: Combinatorial screen of targeted agents with the PI3K inhibitors inavolisib, alpelisib, duvelisib, and copanlisib in multi-cell type tumor spheroids
A high-throughput screen of multi-cell type tumor spheroids was designed to identify active combinations of targeted small molecules and PI3K pathway inhibitors. Complex spheroids include a stromal component modeled by human endothelial cells (HUVEC) and fibroblasts modeled by human mesenchymal stem cells (MSCs). The concentration ranges selected for each drug and investigational agent were based upon clinically achievable concentrations if the clinical Cmax of the agent was known.
Compounds. The drugs and investigational agents: inavolisib (NSC800729), alpelisib (NSC765974), duvelisib (NSC772469), copanlisib (NSC816437), ipatasertib (NSC767898), afuresertib (NSC778305), talazoparib (NSC767125), sapanisertib (NSC764658), selumetinib (NSC741078), tovorafenib (DAY101, NSC766906), vemurafenib (NSC761431), ravoxertinib (NSC781343), sotorasib (NSC818433), MRTX1133 (NSC 836407), abemaciclib (NSC 768073), palbociclib (NSC758247), venetoclax (NSC 766270), SY5609 (NSC837396), enzalutamide (NSC755605), and darolutamide (NSC825331), were obtained from the National Cancer Institute (NCI) Developmental Therapeutics Program Chemical Repository. The FDA-approved anticancer drug set is available from the NCI Developmental Therapeutics Program. […] The stock solutions were prepared in dimethyl sulfoxide (DMSO, Sigma-Aldrich, St. Louis, MO, cat. D2650) at 800-fold the tested concentration and stored at -70 degrees C prior to their use. All drugs and investigational agents were tested over a range starting from a high concentration at or near the clinical Cmax and decreasing in half-log increments. If the clinical Cmax for an agent had not been determined, the highest concentration tested was 10 microM.
Cell Culture. All cells were maintained in an incubator at 37 degrees C and 5% CO2 with 95% humidity. The PDC lines were cultured according to standard operating procedures established by the NCI PDMR (https://pdmr.cancer.gov/sops/default.htm). All PDCs were thawed and cultured in Matrigel-coated flasks prepared with a working solution of 1X Ham's F-12 nutrient mix, without supplementation (Invitrogen, Waltham, MA, cat. 11765054), 100 U/mL penicillin-streptomycin (Invitrogen, cat. 15140122), and 2.5% Matrigel (Corning Inc., Corning, NY, cat. 354248) for the first three passages. The 354836-022-R-J1-PDC, 475296-252-R-J1-PDC, and 997726-040-R-J2-PDC lines were cultured in 6A media, which includes advanced DMEM/F-12 (Thermo Fisher Scientific, cat. 12634028), 10 mM HEPES (Thermo Fisher Scientific, cat. 15630080), 1X GlutaMAX supplement (Thermo Fisher Scientific, cat. 35050061), 0.1 mg/mL primocin (InvivoGen, San Diego, CA, cat. ant-pm-2), 10% defined fetal bovine serum, heat inactivated (HyClone Laboratories Inc., Logan, UT, cat. SH30070.03HI), 50% L-WRN conditioned media (ATCC, cat. CRL-3276), 1.25 mM N-Acetyl-L-cysteine (Sigma-Aldrich, cat. A9165), 10 mM nicotinamide (Sigma-Aldrich, cat. N0636), 1X B-27 supplement (Thermo Fisher Scientific, cat. 17504044), 1X N-2 supplement (Thermo Fisher Scientific, cat. 17502048), and 10 microM Y-27632 dihydrochloride (Tocris Bioscience, Bristol, United Kingdom, cat. 1254). The 624824-186-R-J2-PDC line was cultured in 6C/Colon 1B media, which includes all 6A media components plus 50 ng/mL human EGF recombinant protein (Thermo Fisher Scientific, cat. PHG0311). […]

[1] = second compound 0.00316 µM, first compound 0.0316 µM
[2] = second compound 0.00316 µM, first compound 0.1 µM
[3] = second compound 0.01 µM, first compound 0.0316 µM
[4] = second compound 0.01 µM, first compound 0.1 µM
[5] = second compound 0.0316 µM, first compound 0.0316 µM
[6] = second compound 0.0316 µM, first compound 0.1 µM
[7] = second compound 0.1 µM, first compound 0.0316 µM
[8] = second compound 0.1 µM, first compound 0.1 µM
[9] = second compound 0.316 µM, first compound 0.0316 µM
[10] = second compound 0.316 µM, first compound 0.1 µM
[11] = second compound 1 µM, first compound 0.0316 µM
[12] = second compound 1 µM, first compound 0.1 µM
[13] = second compound 0.00316 µM, first compound 0.316 µM
[14] = second compound 0.00316 µM, first compound 1 µM
[15] = second compound 0.00316 µM, first compound 3.16 µM
[16] = second compound 0.00316 µM, first compound 10 µM
[17] = second compound 0.01 µM, first compound 0.316 µM
[18] = second compound 0.01 µM, first compound 1 µM
[19] = second compound 0.01 µM, first compound 3.16 µM
[20] = second compound 0.01 µM, first compound 10 µM
[21] = second compound 0.0316 µM, first compound 0.316 µM
[22] = second compound 0.0316 µM, first compound 1 µM
[23] = second compound 0.0316 µM, first compound 3.16 µM
[24] = second compound 0.0316 µM, first compound 10 µM
[25] = second compound 0.1 µM, first compound 0.316 µM
[26] = second compound 0.1 µM, first compound 1 µM
[27] = second compound 0.1 µM, first compound 3.16 µM
[28] = second compound 0.1 µM, first compound 10 µM
[29] = second compound 0.316 µM, first compound 0.316 µM
[30] = second compound 0.316 µM, first compound 1 µM
[31] = second compound 0.316 µM, first compound 3.16 µM
[32] = second compound 0.316 µM, first compound 10 µM
[33] = second compound 1 µM, first compound 0.316 µM
[34] = second compound 1 µM, first compound 1 µM
[35] = second compound 1 µM, first compound 3.16 µM
[36] = second compound 1 µM, first compound 10 µM
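Note: spheroids exposed to agents for seven days before read-out.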

IC50 (second compound 0.00316 µM): > 0.1 µM
IC50 (second compound 0.01 µM): > 0.1 µM
IC50 (second compound 0.0316 µM): > 0.1 µM
IC50 (second compound 0.1 µM): > 0.1 µM
IC50 (second compound 0.316 µM): > 0.1 µM
IC50 (second compound 1 µM): > 0.1 µM
SMILES: CC(=O)c1c(C)c2cnc(Nc3ccc(N4CCNCC4)cn3)nc2n(C2CCCC2)c1=O + CC(Nc1ccc2c(c1)OCCn1cc(N3C(=O)OCC3C(F)F)nc1-2)C(N)=O
viability, T/C (second compound 0.00316 µM, first compound 0.000316 µM): 113%
viability, T/C (second compound 0.00316 µM, first compound 0.001 µM): 103%
viability, T/C (second compound 0.00316 µM, first compound 0.00316 µM): 105%
viability, T/C (second compound 0.00316 µM, first compound 0.01 µM): 97.2%
viability, T/C [1]: 99.9%
viability, T/C [2]: 95.7%
viability, T/C (second compound 0.01 µM, first compound 0.000316 µM): 109%
viability, T/C (second compound 0.01 µM, first compound 0.001 µM): 101%
viability, T/C (second compound 0.01 µM, first compound 0.00316 µM): 104%
viability, T/C (second compound 0.01 µM, first compound 0.01 µM): 91.2%
viability, T/C [3]: 103%
viability, T/C [4]: 92.8%
viability, T/C (second compound 0.0316 µM, first compound 0.000316 µM): 111%
viability, T/C (second compound 0.0316 µM, first compound 0.001 µM): 95.7%
viability, T/C (second compound 0.0316 µM, first compound 0.00316 µM): 103%
viability, T/C (second compound 0.0316 µM, first compound 0.01 µM): 94.9%
viability, T/C [5]: 100%
viability, T/C [6]: 95.6%
viability, T/C (second compound 0.1 µM, first compound 0.000316 µM): 97.7%
viability, T/C (second compound 0.1 µM, first compound 0.001 µM): 100%
viability, T/C (second compound 0.1 µM, first compound 0.00316 µM): 92.7%
viability, T/C (second compound 0.1 µM, first compound 0.01 µM): 94.8%
viability, T/C [7]: 99.1%
viability, T/C [8]: 103%
viability, T/C (second compound 0.316 µM, first compound 0.000316 µM): 94.3%
viability, T/C (second compound 0.316 µM, first compound 0.001 µM): 96.5%
viability, T/C (second compound 0.316 µM, first compound 0.00316 µM): 100%
viability, T/C (second compound 0.316 µM, first compound 0.01 µM): 93.3%
viability, T/C [9]: 103%
viability, T/C [10]: 91.4%
viability, T/C (second compound 1 µM, first compound 0.000316 µM): 89%
viability, T/C (second compound 1 µM, first compound 0.001 µM): 95.8%
viability, T/C (second compound 1 µM, first compound 0.00316 µM): 94.1%
viability, T/C (second compound 1 µM, first compound 0.01 µM): 95.2%
viability, T/C [11]: 96.1%
viability, T/C [12]: 82%

IC50 (second compound 0.00316 µM): 6.63 µM
IC50 (second compound 0.01 µM): 6.48 µM
IC50 (second compound 0.0316 µM): 6.29 µM
IC50 (second compound 0.1 µM): 6.2 µM
IC50 (second compound 0.316 µM): 5.98 µM
IC50 (second compound 1 µM): 5.78 µM
SMILES: CCCS(=O)(=O)Nc1ccc(F)c(C(=O)c2c[nH]c3ncc(-c4ccc(Cl)cc4)cc23)c1F + CC(Nc1ccc2c(c1)OCCn1cc(N3C(=O)OCC3C(F)F)nc1-2)C(N)=O
viability, T/C [1]: 113%
viability, T/C [2]: 104%
viability, T/C [13]: 112%
viability, T/C [14]: 111%
viability, T/C [15]: 135%
viability, T/C [16]: 14.1%
viability, T/C [3]: 117%
viability, T/C [4]: 110%
viability, T/C [17]: 114%
viability, T/C [18]: 105%
viability, T/C [19]: 148%
viability, T/C [20]: 8.38%
viability, T/C [5]: 97%
viability, T/C [6]: 105%
viability, T/C [21]: 100%
viability, T/C [22]: 105%
viability, T/C [23]: 136%
viability, T/C [24]: 10.4%
viability, T/C [7]: 96.5%
viability, T/C [8]: 102%
viability, T/C [25]: 97.9%
viability, T/C [26]: 101%
viability, T/C [27]: 130%
viability, T/C [28]: 10.7%
viability, T/C [9]: 90.6%
viability, T/C [10]: 93.7%
viability, T/C [29]: 98.5%
viability, T/C [30]: 98.4%
viability, T/C [31]: 113%
viability, T/C [32]: 10.5%
viability, T/C [11]: 88.3%
viability, T/C [12]: 88.8%
viability, T/C [33]: 91.4%
viability, T/C [34]: 97%
viability, T/C [35]: 91.2%
viability, T/C [36]: 12.5%

IC50 (second compound 0.00316 µM): > 10 µM
IC50 (second compound 0.01 µM): > 10 µM
IC50 (second compound 0.0316 µM): > 10 µM
IC50 (second compound 0.1 µM): > 10 µM
IC50 (second compound 0.316 µM): > 10 µM
IC50 (second compound 1 µM): > 10 µM
SMILES: CNC(=O)c1ccc(N2C(=S)N(c3ccc(C#N)c(C(F)(F)F)c3)C(=O)C2(C)C)cc1F + CC(Nc1ccc2c(c1)OCCn1cc(N3C(=O)OCC3C(F)F)nc1-2)C(N)=O
viability, T/C [1]: 108%
viability, T/C [2]: 102%
viability, T/C [13]: 107%
viability, T/C [14]: 107%
viability, T/C [15]: 110%
viability, T/C [16]: 120%
viability, T/C [3]: 115%
viability, T/C [4]: 100%
viability, T/C [17]: 107%
viability, T/C [18]: 101%
viability, T/C [19]: 108%
viability, T/C [20]: 117%
viability, T/C [5]: 106%
viability, T/C [6]: 101%
viability, T/C [21]: 94.5%
viability, T/C [22]: 103%
viability, T/C [23]: 112%
viability, T/C [24]: 112%
viability, T/C [7]: 94.1%
viability, T/C [8]: 93.9%
viability, T/C [25]: 103%
viability, T/C [26]: 98.2%
viability, T/C [27]: 105%
viability, T/C [28]: 110%
viability, T/C [9]: 94.7%
viability, T/C [10]: 96.8%
viability, T/C [29]: 99.6%
viability, T/C [30]: 96.8%
viability, T/C [31]: 102%
viability, T/C [32]: 102%
viability, T/C [11]: 83.9%
viability, T/C [12]: 100%
viability, T/C [33]: 94.9%
viability, T/C [34]: 92.1%
viability, T/C [35]: 98.6%
viability, T/C [36]: 106%
